Laboratory results: PMC6934825 (Scientific Reports, 2019)
Entries after “also recorded” stand apart in the source; their conditions may differ.

What was measured:
[1] = plasma in vitro; cited from earlier work
[2] = human, up to 120 minutes
[3] = in vivo study in male rats; details: cited from earlier work
[4] = clinical trials, acute respiratory distress syndrome; cited from earlier work

For `CSCC[C@H](NC(=O)[C@@H]1CCCN1C(=O)CNC(=O)[C@H](CCCCN)NC(=O)[C@H](Cc1cnc[nH]1)NC(=O)[C@H](CO)NC(=O)[C@H](CC(C)C)NC(=O)[C@H](CCCNC(=N)N)NC(=O)[C@@H]1CCCN1C(=O)[C@H](CCCNC(=N)N)NC(=O)[C@@H]1CCC(=O)N1)C(=O)N1CCC[C@H]1C(=O)N[C@@H](Cc1ccccc1)C(=O)O` [[Pyr^1]apelin-13], the “degradation in rat and mouse plasma compared to dog, monkey and human plasma” value [1] is listed as “more rapid degradation”.

In the case of “pGlu Arg Pro Arg Leu Ser His Lys Gly Pro Met Pro Phe”, the cleaved bond [2] is given as “Pro10-Met11, major, 120 minutes; also recorded: Ser6-His7, major, 120 minutes; also recorded: Leu5-Ser6, 120 minutes” and the fragment found [3] is given as “[Pyr^1]apelin-13(1–12); also recorded: [Pyr^1]apelin-13(1–10); also recorded: [Pyr^1]apelin-13(1–6)”.

For “GSK2586881: recombinant human ACE2 for treatment of acute respiratory distress syndrome”, the tolerability [4] is listed as “well-tolerated”.
